Experimental data taken from patent US20070265201A1, “INHIBITORS OF IN[…] TRA[…] FROM HCMV PROTEIN IE2” (priority 2005, published 2007).
Entries after “also recorded” stand apart in the source; their conditions may differ. Ends that are not written are not given here.

Experiments:
[1] = tested on: IL-1β promoter; assay: IL-1β promoter (HT) luciferase gene reporter assay, transient transfection of HeLa-S3 cells with Spi-1 and C/EBPβ expression vectors; type: cell-based, human; details: for inhibition of cooperative transactivation of the IL-1β promoter: HT reporter with Spi-1 and C/EBP, absence of full-length IE2, titrated fragment vector, FIG. 2A
Source text: FIGS. 1A-1D depict cooperative transactivation of the IL-1B promoter by Spi-1, C/EBPβ and IE2. FIG. 1A is a schematic of the IL-1B promoter showing two composite Spi-1-C/EBPβ binding sites in proximity to the transcription start site. The full-length promoter (HT) was spliced into a vector containing the gene reporter firefly luciferase and used in transient transfection assays in HeLa-S3 cells. FIG. 1B depicts dose-response of HT reporter to titrated Spi-1 expression vector and a fixed amount of cotransfected C/EBPβ expression vector. FIG. 1C depicts dose-response of HT reporter to titrated C/EBPβ expression vector and a fixed amount of Spi-1 expression vector. FIG. 1D depicts functional cooperativity with IE2. The HT reporter was contransfected with titrated Spi-1 expression vector (open bars) or fixed amount of C/EBPβ expression vector (checkerboard bars), or both C/EBPβ and IE2 expression vectors (hatched bars).
The data shown here are pooled from three independent experiments. […] The indicated transfection groups were con-transfected with titrated amounts of IE2 291-364 or 291-343 expression vectors. […] The experiment described by FIG. 2B is similar to that described by FIG. 2A except that wild type IE2 was also added to the indicated transfection groups. These are pooled data from three independent experiments.
• Cell Culture. HeLa cells (Strain S3) were obtained by ATCC and cultured per their recommendations. Briefly, the cells were grown in Dulbecco modified Eagle medium (DMEM) containing 10% FBS and 0.5% penicillin-streptomycin. Every three days cells were split 1:10 using Trypsin (0.25%) EDTA (0.1%) (Cellgro) to detach the cells. • Reporter Constructs and Expression Vectors. The human IL1B promoter regions (−131+12 and −59/+12 and its mutants (FIG. 1A) were generated by polymerase chain reaction (PCR) and inserted into pGL3-Basic vector (Promega) at Mlu I and BgI II or Hind III sites to construct promoter-luciferase reporter plasmids. The HCMV IE expression vectors pEQ273 and pEQ326 contain the genomic HCMV IE DNA inserted into pGEM1 vector. The plasmids expressing full-length NFIL6 and a truncated version with an internal deletion between the two Spl I restriction sites were constructed by inserting the NFIL6 cDNAs into expression vectors pcDNA3.1 or pcDNA1 (Invitrogen) (Tsukada, J., K. Saito, et al. (1994) Mol Cell Biol 14(11): 7285-97). […] Twenty-four or forty-eight hours after transfection, the activities of luciferase and β-galactosidae activity were determined (using reagents from Promega) to measure promoter activity and allow normalization of luciferase activity in each experiment, respectively. […]

[2] = molecular target: T1, Spi-1 ETS domain (Homo sapiens, UniProt P17947); assay: GST fusion pull-down assay with radiolabeled Spi-1 ETS domain probe; type: binding; details: autoradiography, FIG. 5
T1 construct: made in house; host or cells: in vitro translation, rabbit reticulocyte lysate (TNT T7 Quick Coupled, Promega), 35S-methionine label
Protocol: (§1) Interaction of the indicated probes is retained to the control peptides IE2 291-343 and IE2 291-364.
(§2) • Cell Culture. HeLa cells (Strain S3) were obtained by ATCC and cultured per their recommendations. Briefly, the cells were grown in Dulbecco modified Eagle medium (DMEM) containing 10% FBS and 0.5% penicillin-streptomycin. Every three days cells were split 1:10 using Trypsin (0.25%) EDTA (0.1%) (Cellgro) to detach the cells. • Reporter Constructs and Expression Vectors. The human IL1B promoter regions (−131+12 and −59/+12 and its mutants (FIG. 1A) were generated by polymerase chain reaction (PCR) and inserted into pGL3-Basic vector (Promega) at Mlu I and BgI II or Hind III sites to construct promoter-luciferase reporter plasmids. The HCMV IE expression vectors pEQ273 and pEQ326 contain the genomic HCMV IE DNA inserted into pGEM1 vector. The plasmids expressing full-length NFIL6 and a truncated version with an internal deletion between the two Spl I restriction sites were constructed by inserting the NFIL6 cDNAs into expression vectors pcDNA3.1 or pcDNA1 (Invitrogen) (Tsukada, J., K. Saito, et al. (1994) Mol Cell Biol 14(11): 7285-97). The expression vector containing the bZIP region of NFIL6 was constructed by inserting a PCR-amplified fragment of NFIL6 encoding amino acids 269-345 into pcDNA3.1 (Yang, Z., N. Wara-Aswapati, et al. (2000) J Biol Chem 275(28): 21272-7). • Transfections and Reporter Gene Assays. HeLa (S3) cells were transfected with expression vectors and luciferase reporter plasmids using Effectene reagents (Qiagen Inc.). Cells were seeded into 24-well plates 24 hours before transfection. […] Expression from these vectors was confirmed by western blotting. Twenty-four or forty-eight hours after transfection, the activities of luciferase and β-galactosidae activity were determined (using reagents from Promega) to measure promoter activity and allow normalization of luciferase activity in each experiment, respectively. […] Gels were stained with SimplyBlue Safestain (Invitrogen) for protein determination and analyzed for binding using autoradiography. […]

[3] = molecular target: T2, IE2 (Human cytomegalovirus, UniProt P19893); assay: GST fusion pull-down assay with radiolabeled IE2 probe; type: binding; details: autoradiography, FIG. 5
T2 construct: made in house; host or cells: in vitro translation, rabbit reticulocyte lysate (TNT T7 Quick Coupled, Promega), 35S-methionine label
Protocol: as §1, §2

[4] = molecular target: T3, C/EBPβ bZIP domain (Homo sapiens, UniProt P17676); assay: GST fusion pull-down assay with radiolabeled C/EBPβ bZIP domain probe; type: binding; details: autoradiography, FIG. 5
T3 construct: PCR-amplified fragment of NFIL6 encoding amino acids 269-345 into pcDNA3.1; made in house; host or cells: in vitro translation, rabbit reticulocyte lysate (TNT T7 Quick Coupled, Promega), 35S-methionine label
Protocol: as §1, §2

[5] = tested on: GFP expression vector; assay: Specificity control: expression of control GFP vector by flow cytometry in HeLa-S3 cells; type: cell-based; details: HeLa-S3, cotransfection, 24 hours, FIG. 4D
Protocol: (§3) FIGS. 4A-4D. […] FIG. 4D is another specificity control showing that a control GFP expression vector was not affected by either IE2 291-343 or IE2 291-364. HeLa-S3 cells were transfected with both a GFP expression vector and cotransfected with either E2 291-343 or IE 291-364 expression vectors and GFP expression analyzed 24 hours later by a fluorescence activated cell sorter.
(§4) Because the IE2 291-364 region was previously mapped as one of three TBP binding sites on IE2, it was possible that the inhibitory function was due to interaction with TBP. To exclude this possibility, the expression of two other genes that contain TATA boxes in their promoters were investigated. First, an observed the expression of C/EBPβ from the expression vector by western blot (FIG. 4C) was conducted. […] Second, His-tagged inhibitors were cotransfected with ev GFP and the geometric mean brightness of transfected cells measured by flow cytometry (FIG. 4D). […] It is believed that the basis for the interaction is localized to residues 315-328 of the IE2 molecule because a variant of IE2 291-364 missing the 315-328 region (delA) lacks binding to Spi-1 ETS domain in a GST fusion pull-down assay (FIG. 5).

[6] = tested on: C/EBPβ; assay: Specificity control: C/EBPβ expression by western blot of transfected HeLa-S3 lysates; type: cell-based; details: HeLa-S3 cell lysates, FIG. 4C
Protocol: as §3, §4

[7] = tested on: IL-1β promoter reporter; assay: Full-length IL-1β regulatory region luciferase reporter in LPS-stimulated RAW264.7 monocytic cells; type: cell-based
Source text: FIG. 3 depicts that IE2 291-364 fragment inhibits full-length IL-1β reporter in the monocytic cell line RAW264.7. A luciferase gene reporter was made by splicing the native IL-1β upstream fragment (XT), which contains the enhancer through promoter sequences, upstream of the luciferase gene. This was cotransfected (in titrated doses) with pCDNA 3.1/V5-His empty vector (control) or pCDNA 3.1/V5-His IE2 291-364 by calcium phosphate precipitation into RAW 264.7 cells. To activate the reporter, cells were stimulated with LPS.
FIG. 6 depicts increasing amounts of vector expressing either IE2 291-364Δ315-328 or IE2 291-364 transfected into RAW cells with full length IL-1β regulatory protein as a luciferase reporter. After transient transfection by CaPO4, RAW cell lysates were used for measurement by luminometry and results normalized to β-galactosidase activity introduced by a co-transfected β-galactosidase expression vector to control for transfection efficiency. Values for IE2 291-364Δ315-328 are reported as percentages of relative luciferase activity compared to the wild-type fragment 315-264, as shown.
To further verify the effect of IE2 291-364, a test was conducted in the RAW 264.7 cell line. […] When the RAW 264.7 cell line was treated with the bacterial cell wall product LPS, it produced IL-1β similar to what normal monocytes would do. The IE2-291-364 peptide inhibited IL-1β promoter reporter by about 50% in this system (FIG. 3).
In order to more rigorously test the inhibitory capabilities of the IE2 peptides on IL1B gene expression, a complete monocyte-specific 3.8 kbp regulatory region of the IL1B gene containing both the LPS-responsive enhancer and the cell-type specific Spi-1-dependent promoter (Shirakawa, F., K. Saito, et al. (1993). Mol Cell Biol 13(3): 1332-44) was transfected as a luciferase reporter into LPS-treated RAW264.7 monocyte cells.

T2 sequence (P19893 whole entry, the tested form may be a part): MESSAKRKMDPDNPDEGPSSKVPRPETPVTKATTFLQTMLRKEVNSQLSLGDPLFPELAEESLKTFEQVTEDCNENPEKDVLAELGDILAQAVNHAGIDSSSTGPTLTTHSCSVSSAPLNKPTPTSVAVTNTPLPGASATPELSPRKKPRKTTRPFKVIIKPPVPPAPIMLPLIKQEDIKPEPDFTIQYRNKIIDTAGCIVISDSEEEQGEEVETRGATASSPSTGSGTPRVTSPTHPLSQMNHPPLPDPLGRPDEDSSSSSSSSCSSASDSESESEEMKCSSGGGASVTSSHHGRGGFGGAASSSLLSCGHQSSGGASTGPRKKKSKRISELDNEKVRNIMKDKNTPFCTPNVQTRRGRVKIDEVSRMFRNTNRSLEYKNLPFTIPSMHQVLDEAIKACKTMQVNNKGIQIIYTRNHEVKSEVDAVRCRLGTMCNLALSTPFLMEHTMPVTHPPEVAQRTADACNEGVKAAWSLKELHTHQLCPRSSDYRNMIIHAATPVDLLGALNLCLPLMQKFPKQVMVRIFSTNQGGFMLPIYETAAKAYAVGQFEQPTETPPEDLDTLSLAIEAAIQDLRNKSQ
T3 sequence (P17676 269-345): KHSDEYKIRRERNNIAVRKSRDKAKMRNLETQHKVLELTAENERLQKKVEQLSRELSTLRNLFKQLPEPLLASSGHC

| Substance | inhibition of cooperative transactivation of the IL-1β promoter [1] | interaction with Spi-1 ETS domain probe [2] | interaction with IE2 probe [3] | interaction with C/EBPβ bZIP domain probe [4] | effect on GFP expression from control GFP vector [5] | further results |
| --- | --- | --- | --- | --- | --- | --- |
| full length wild-type IE2: CMV encoded transactivator Immediate Early 2 protein, full length | – | – | – | – | – | increase of IL-1β promoter reporter activity ([1]; full length wild-type IE2 added to Spi-1 and C/EBPβ transfection, HeLa-S3, FIG. 1D): 4-10 fold |
| GFP-IE2 291-343 (SSHHGRGGFGGAASSSLLSCGHQSSGGASTGPRKKKSKRISELDNEKVRNIMK; also: GFP fusion) | – | – | – | – | – | inhibition of IL-1β promoter (HT reporter) activity by GFP fusion product ([1]; Spi-1 and C/EBPβ transactivation, GFP-expressing cells purified by FACS, FIG. 4B): inhibition of IL-1β promoter activity |
| IE2 291-343: hCMV IE2 protein amino acid residues 291-343 | inhibited | retained | retained | retained | not affected | – |
| IE2 291-364: hCMV IE2 protein amino acid residues 291-364, expressed from vector (His tag or GST fusion) | inhibited | retained | retained | retained | not affected | effect on expression of C/EBPβ protein (western blot) [6]: does not inhibit; dose dependence of inhibition of 3.8 kbp IL1B regulatory region reporter activity ([7]; LPS-treated RAW264.7, His-tagged expression vector, FIG. 6): dose-dependent inhibition; inhibition of full-length IL-1β reporter (XT) ([7]; RAW264.7, LPS stimulated, cotransfected pCDNA 3.1/V5-His IE2 291-364, FIG. 3): inhibits; inhibition of IL-1β promoter reporter ([7]; RAW 264.7 cells treated with LPS, FIG. 3): about 50% |
| delA (SSHHGRGGFGGAASSSLLSCGHQSRISELDNEKVRNIMKDKNTPFCTPNVQTRRGRVKID; not fully specified; cysteine pairing not given here) [reference compound] | – | lacks binding; also recorded: loss of interaction | loss of interaction | loss of interaction | – | – |
